Assay results taken from US7256201B2, “Selective estrogen receptor-β ligands” (AstraZeneca AB, priority 2000, dated 2007).

Experiments:
αER = biological target: T1, αER (Homo sapiens, UniProt P03372); experiment: Cell-based assay for ER transcriptional activity (ERE β-gal reporter), αER-transfected 293 cells; details: 293 cells transfected with αER and ERE reporter; for ERE α-ER Max: maximal response, unit assumed; for EC50: read-out: ERE α-ER EC50
T1 construct: expressed in transfected cells; host or cells: 293 cells (Human Embryonic Kidney, ATCC CRL-1573)
T1 sequence (P03372 1-595): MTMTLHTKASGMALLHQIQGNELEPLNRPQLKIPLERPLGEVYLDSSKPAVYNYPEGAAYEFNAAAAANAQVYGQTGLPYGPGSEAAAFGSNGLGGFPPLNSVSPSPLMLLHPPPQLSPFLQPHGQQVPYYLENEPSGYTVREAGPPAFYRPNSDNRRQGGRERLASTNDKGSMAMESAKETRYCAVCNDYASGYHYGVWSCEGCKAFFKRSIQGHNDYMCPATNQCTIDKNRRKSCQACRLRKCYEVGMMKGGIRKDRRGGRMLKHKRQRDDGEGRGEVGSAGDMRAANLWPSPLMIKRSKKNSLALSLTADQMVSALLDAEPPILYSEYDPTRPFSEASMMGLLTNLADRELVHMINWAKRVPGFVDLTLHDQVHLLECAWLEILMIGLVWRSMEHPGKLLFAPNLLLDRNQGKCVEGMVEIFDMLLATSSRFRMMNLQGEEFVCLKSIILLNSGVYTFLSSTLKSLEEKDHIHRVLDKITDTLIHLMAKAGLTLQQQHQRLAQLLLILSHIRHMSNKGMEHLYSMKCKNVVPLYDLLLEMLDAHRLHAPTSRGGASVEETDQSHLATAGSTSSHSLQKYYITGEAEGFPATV
Experimental: (§1) ERs are ligand-dependent transcription factors that bind the promoter regions of genes at a consensus DNA sequence called the estrogen responsive element (ERE). The ER agonist or antagonist activity of a drug was determined by measuring the amount of reporter enzyme activity expressed from a plasmid under the control of an estrogen-responsive element when cells transiently transfected with ER and the reporter plasmid were exposed to drug. These experiments were conducted according to the following methods.
(§2) Estrogen Receptors alpha (αER, Gen Bank accession #M12674), and beta (βER, Gen Bank #X99101 were cloned into the expression vector pSG5 (Stratagene). A trimer of the vitellogenin-gene estrogen response element (vitERE) was synthesized as an oligonucleotide and attached to a beta-globin basal promoter in a construct named pERE3 gal. This response element and promoter were removed from pERE3 gal by digestion with the endonucleases SpeI (filled with Klenow fragment) and HindIII. This blunt/Hind III fragment was cloned into the β-galactosidase (β-gal) enhancer reporter plasmid (pBGALenh, Stratagene). αER and βER plasmids were purified using a the Endo Free Maxi Kit (Qiagen), and the DNA concentration and purity (A260/280 ratio) were determined spectrophotometrically (Pharmacia). Only DNA with A260/280 ratio of 1.8 and a concentration of >1 ug/uL was used for transfections.
(§3) All Transfections are performed in 293 cells (Human Embryonic Kidney cells ATCC #CRL-1573). Cells are grown in DMEM supplemented with 10% FBS, glutamine, sodium pyruvate and penicilin/streptomycin. Cells are grown to 70% confluency and split 1:4.
(§4) • 1. 293 cells are split the night before onto collagen I-coated 150 mm tissue-culture plates (Biocoat, Becton Dickinson #354551) at a density of 60-70% in DMEM Mediatech 17-205-CV) 10% charcoal-stripped FBS (biocell #6201-31). Approximately 1×10^7 cells/plate will yield 70% confluency. • 2. The next morning, 1 hour prior to transfection, the media is changed to fresh DMEM 10% FBS stripped and supplements. • 3. Transfections are performed using the Profection Kit (Promega #E1200). This kit is based on the calcium-phosphate-mediated transfection technique. Reagents are added in sterile polystyrene tubes in the following order:
(§5) Solution A • 15 μg αER or βER • 45 μg Reporter (pBGALenh or ERE3) • 1.5 mL Sterile Water • 186 μL CaCl2 • *Mix gently
(§6) Solution B • 1.5 mL 2× Hank's Buffered Salt Solution • 4. Using a vortex set on low, add solution A to solution B dropwise. The resulting solution should become milky in color. It is important to achieve thorough mixing. The solution is allowed to settle for 30 minutes, then vortexed before adding the solution to cells. • 5. Add the mixture to 150 mm plates dropwise. Mix well by rocking plates back and forth and side to side gently. After an hour, a very fine precipitate should be seen floating on and above cells under 20× magnification. If this precipitate is not observed, the transfection will not be effective. Incubate the cells for 12 hours. Receptor Stimulation: • 1. The day after transfection, cells are washed 2× with calcium- and magnesium-free Mg free PBS containing 1 mM EGTA (pH 7.6). Cells are trypsinized for 2 min with 3 mL of trypsin-EDTA. Trypsin is neutralized with DMEM 10% FCS. Cells are pelleted at 1000×g for 5 min. The cell pellet is then resuspended in 5 mL DMEM plus 2% phenol-red-free FCS supplemented with glutamine, pyruvate, and Penn/Strep. • 2. 50 μl of the resulting cell suspension is plated into each well of 96-well tissue culture dishes (Biocoat B&D #354407) using a multi-channel pipettor. The dishes have been previously loaded with 50 μL of DMSO-solubilized test compounds at twice the test concentration in DMEM. Data reported are either n=4 wells (single poke) and n=2 wells (9-point concentration-response curves). • 3. Cells are incubated overnight at 37° C. in the selected compounds. Reporter Assay: • 1. […]

human recombinant ERβ = biological target: T2, human recombinant ERβ (Homo sapiens, UniProt Q92731); experiment: Fluorescence polarization estrogen receptor (ERFP) binding assay, ERβ; details: for Ki: competition with Fluormone ES2, IC50 converted to Ki by Kenakin formula, read-out: FP β-ER Ki; for FP Selectivity: ratio α-ER Ki / β-ER Ki
T2 construct: purchased PanVera (Madison, Wis.)
T2 sequence (Q92731 whole entry): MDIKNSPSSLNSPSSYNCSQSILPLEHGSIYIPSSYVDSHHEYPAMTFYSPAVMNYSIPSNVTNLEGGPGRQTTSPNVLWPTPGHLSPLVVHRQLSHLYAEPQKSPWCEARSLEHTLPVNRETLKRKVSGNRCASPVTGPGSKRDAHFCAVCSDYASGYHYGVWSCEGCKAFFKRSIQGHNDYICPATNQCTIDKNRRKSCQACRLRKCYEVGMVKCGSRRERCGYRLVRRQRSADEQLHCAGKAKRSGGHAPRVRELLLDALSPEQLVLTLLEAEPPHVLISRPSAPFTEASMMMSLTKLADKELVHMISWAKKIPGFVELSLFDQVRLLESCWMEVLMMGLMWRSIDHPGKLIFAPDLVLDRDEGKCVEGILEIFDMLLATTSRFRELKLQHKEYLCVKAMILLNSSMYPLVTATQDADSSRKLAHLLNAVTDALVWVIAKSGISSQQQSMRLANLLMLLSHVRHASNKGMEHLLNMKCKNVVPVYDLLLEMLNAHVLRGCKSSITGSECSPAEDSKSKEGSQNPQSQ
Experimental: (§7) A homogeneous mix-and-measure estrogen receptor (ER) binding assay which utilizes fluorescence polarization (FP) technology is used to identify compounds with affinity for the estrogen receptor. Purchased from PanVera (Madison, Wis.), assay reagents include purified human recombinant ERα, human recombinant ERβ, ES2 screening buffer (100 mM potassium phosphate, pH 7.4, 100 μg/mL bovine gamma globulin), and Fluormone™ ES2.
(§8) For competition binding experiments, dilutions of test compounds are prepared at 2× the final assay concentration in 0.2% DMSO in ES2 Screening buffer on TECAN Genosys, and 25 μL compound/well is dispensed into black Costar ½ volume 96-well plates. Dependent upon a lot specific Kd determination, 10-40 nM ERα or 10-40 nM ERβ and 1 nM Fluormone ES2 are then added to these plates in a final assay volume of 50 μL/well. Plates are gently shaken for at least 5 minutes to mix and incubated for at least 1 hr 45 minutes to achieve equilibrium. (Reaction mixtures are stable for up to 5 hours). After centrifugation to remove air bubbles, plates are read on an LJL Analyst or Acquest equipped with Criterion software at the following settings: Fluorescence Polarization Mode; Static Polarizer on Excitation Side; Dynamic Polarizer on Emission Side; Excitation λ=485×/−5 10 nm; Emission λ=520+/−12.5 nm.
(§9) Polarized fluorescence intensity values are collected and subsequently converted electronically to millipolarization (mp) values. Following data reduction and normalization with Excel and/or Prism software, % Ctrl values at the various test concentrations are used to obtain IC50 values via non-linear regression analysis of a four-parameter logistic equation.
(§10) Because ligand depletion is a consideration in this assay (˜40-60% input ES2 is bound in the assay), IC50 values are converted to Ki values through application of the Kenakin formula, as outlined in the reference below, rather than via the more routinely-used Cheng-Prusoff formula.

human recombinant ERα = biological target: T3, human recombinant ERα (Homo sapiens, UniProt P03372); experiment: Fluorescence polarization estrogen receptor (ERFP) binding assay, ERα; details: competition with Fluormone ES2; IC50 converted to Ki by Kenakin formula; read-out: FP α-ER Ki
T3 construct: purchased PanVera (Madison, Wis.)
T3 sequence (P03372 1-595): T1 sequence (P03372 1-595)
Experimental: as §7, §8, §9, §10

βER = biological target: T4, βER (Homo sapiens, UniProt Q92731); experiment: Cell-based assay for ER transcriptional activity (ERE β-gal reporter), βER-transfected 293 cells; details: for ERE β-ER Max / EC50: 293 cells transfected with βER and ERE reporter; for ERE β-ER Max: maximal response, unit assumed; for ERE Selectivity: ratio α-ER EC50 / β-ER EC50
T4 construct: expressed in transfected cells; host or cells: 293 cells (Human Embryonic Kidney, ATCC CRL-1573)
T4 sequence (Q92731 54-530 limits assumed): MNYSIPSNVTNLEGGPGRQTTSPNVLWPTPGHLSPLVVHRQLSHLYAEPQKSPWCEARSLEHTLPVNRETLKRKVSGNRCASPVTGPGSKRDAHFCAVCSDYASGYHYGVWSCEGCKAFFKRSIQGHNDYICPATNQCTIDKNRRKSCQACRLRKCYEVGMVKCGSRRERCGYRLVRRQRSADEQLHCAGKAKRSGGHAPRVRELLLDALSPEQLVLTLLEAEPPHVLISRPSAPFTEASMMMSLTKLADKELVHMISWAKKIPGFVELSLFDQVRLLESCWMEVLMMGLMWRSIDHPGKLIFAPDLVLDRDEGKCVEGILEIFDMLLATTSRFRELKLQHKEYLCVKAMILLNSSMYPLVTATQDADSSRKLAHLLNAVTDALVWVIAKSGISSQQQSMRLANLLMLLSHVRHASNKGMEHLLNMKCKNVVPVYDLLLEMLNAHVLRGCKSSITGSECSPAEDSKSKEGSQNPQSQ
Experimental: as §1, §2, §3, §4, §5, §6

ERE α-ER Max (αER) [%]	Ki (human recombinant ERβ) [nM]	FP Selectivity (human recombinant ERβ)	Ki (human recombinant ERα) [nM]	ERE β-ER Max (βER) [%]	EC50 (αER) [nM]	EC50 (βER) [nM]	ERE Selectivity (βER)	Compound
113	8	2.2	16	71				Cc1ccccc1C1c2ccc(O)cc2CCN1c1ccc(O)cc1 (stereo not shown) [Example 12, 2-(4-Hydroxyphenyl)-1-o-tolyl-1,2,3,4-tetrahydroisoquinolin-6-ol]
89	32	1.8	55	69				Oc1ccc2c(c1)CCN(c1ccc(Cl)cc1Cl)C2 [Example 13, 2-(2,4-Dichloro-phenyl)-1,2,3,4-tetrahydro-isoquinolin-6-ol]
42	45	6.8	307	44	1000	143	7.0	CC1c2ccc(O)cc2CCN1c1ccc(O)cc1 (stereo not shown) [Example 14, 2-(4-Hydroxy-phenyl)-1-methyl-1,2,3,4-tetrahydro-isoquinolin-6-ol]
37	18	3.3	59	51	1000	23	43	CCC1c2ccc(O)cc2CCN1c1ccc(O)cc1 (stereo not shown) [Example 15, 1-Ethyl-2-(4-hydroxy-phenyl)-1,2,3,4-tetrahydro-isoquinolin-6-ol]
87	34	3.3	110	72	2.5	49	0.1	CC1c2ccc(O)cc2CCN1c1cccc(O)c1 (stereo not shown) [Example 17, 2-(3-Hydroxy-phenyl)-1-methyl-1,2,3,4-tetrahydro-isoquinolin-6-ol]
85	4.5	2.1	9	117	24.6	6.1	4.0	Cc1ccc(O)cc1N1CCc2cc(O)ccc2C1C (stereo not shown) [Example 18, 2-(5-Hydroxy-2-methyl-phenyl)-1-methyl-1,2,3,4-tetrahydro-isoquinolin-6-ol]
66	24.4	3.0	72	41	16.8	209	0.1	CCC1c2ccc(O)cc2CCN1c1ccc(O)c(Cl)c1 (stereo not shown) [Example 19, 2-(3-Chloro-4-hydroxy-phenyl)-1-ethyl-1,2,3,4-tetrahydro-isoquinolin-6-ol]
75	1.2	2.5	3	85	1.2	0.4	3.3	Cc1ccc(N2CCc3cc(O)ccc3C2c2ccccc2)cc1O (stereo not shown) [Example 20, 2-(3-Hydroxy-4-methyl-phenyl)-1-phenyl-1,2,3,4-tetrahydro-isoquinolin-6-ol]
77	3.8	6.0	22	106	0.8	0.7	1.1	Cc1ccc(N2CCc3cc(O)ccc3C2c2ccoc2)cc1O (stereo not shown) [Example 21, 1-Furan-3-yl-2-(3-hydroxy-4-methyl-phenyl)-1,2,3,4-tetrahydro-isoquinolin-6-ol]
60	55	3.5	190	77	192	161	1.2	Oc1ccc(N2Cc3ccc(O)cc3C2)cc1 [Example 25, 5-Hydroxy-2-(4-hydroxyphenyl)isoindoline]
102	160	1.3	200	85	73	79	0.9	CCC1c2cc(O)ccc2CN1c1ccc(O)cc1 (stereo not shown) [Example 26, 1-Ethyl-6-hydroxy-2-(4-hydroxyphenyl)isoindoline]
